Experimental data published in US6858230B1, “Process for producing medicinal composition of basic hydrophobic medicinal compound” (Shionogi & Co., Ltd., priority 1999, dated 2005).

Tests used:
[1] = Dispersibility of a basic compound in a suspension; assay type: physicochemical; settings: suspension with DL-malic acid, neutralized with NaOH (Examples 3-1, 4, 5)
Experimental: 50 g of PVP K30 was dissolved to 800 g of purified water. These aqueous solution were acidified by DL-Malic acid. The compound (I-1) was suspended in the acidic solution under stirring. The suspension was neutralized with 115 g of 13% NaOH aqueous solution to give a suspension. In place of the compound (I-1) in Example 3-1, pindolol was used. In place of the compound (I-1) in Example 3-1, noscapine was used. Dispersibility of the compound (I-1) in an acidic suspension obtained in Example 3-1 to 3-4 including various kinds of acids was examined. Dispersibility was observed by the naked eyes at the time of preparation of an suspension. Dispersibility of active ingredient in the suspension obtained in Example 3-1, 4 and 5 was examined in accordance with Experiment 4.

[2] = Dispersibility of active ingredient in acidic suspension with various kinds of acids; assay type: physicochemical; settings: at preparation
Experimental: 50 g of PVP K30 was dissolved to 800 g of purified water. These aqueous solution were acidified by DL-Malic acid. The compound (I-1) was suspended in the acidic solution under stirring. The suspension was neutralized with 115 g of 13% NaOH aqueous solution to give a suspension. In place of malic acid in Example 3-1, citric acid was used. In place of malic acid in Example 3-1, phosphoric acid was used. No acid was used. Dispersibility of the compound (I-1) in an acidic suspension obtained in Example 3-1 to 3-4 including various kinds of acids was examined. Dispersibility was observed by the naked eyes at the time of preparation of an suspension.

SMILES	Dispersibility of drug substance [1]	Dispersibility of drug substance ([2]; suspension with citric acid (Example 3-2))	Dispersibility of drug substance ([2]; suspension with malic acid (Example 3-1))	Dispersibility of drug substance ([2]; suspension with no acid (Reference Example 3-4))	Dispersibility of drug substance ([2]; suspension with phosphoric acid (Example 3-3))
CC(C)c1nc(COC(N)=O)n(Cc2ccncc2)c1Sc1cc(Cl)cc(Cl)c1 [Compound (I-1), 5-(3,5-dichlorophenyl)thio-4-isopropyl-1-(4-pyridyl)methyl-1H-imidazol-2-ylmethyl carbamate]	Good	Good	Good	Formation	Good
COc1ccc2c(c1OC)C(=O)O[C@@H]2[C@H]1c2c(cc3c(c2OC)OCO3)CCN1C [Noscapine, noscapine]	Good	–	–	–	–
CC(C)NCC(O)COc1cccc2[nH]ccc12 (stereo not shown) [Pindolol, pindolol]	Good	–	–	–	–
